Data published in ChEMBL document CHEMBL1201862, “PubChem BioAssay data set” (2004).
Calls of active or inactive are those of the source.

Legend:
Prothrombin = Prothrombin (Bos taurus, UniProt P00735); assay: thrombin protease inhibitors – biochemical, fluorescence polarization, uHTS hits, dose response (AID 602369); assay type: functional
[1] = molecular target: 72 kDa type IV collagenase (Homo sapiens, UniProt P08253); assay: Dose Response validation of uHTS RPN11 inhibitor hits using a MMP-2 Fluorescence assay.; assay type: functional
Chain of 72 kDa type IV collagenase (P08253 whole entry): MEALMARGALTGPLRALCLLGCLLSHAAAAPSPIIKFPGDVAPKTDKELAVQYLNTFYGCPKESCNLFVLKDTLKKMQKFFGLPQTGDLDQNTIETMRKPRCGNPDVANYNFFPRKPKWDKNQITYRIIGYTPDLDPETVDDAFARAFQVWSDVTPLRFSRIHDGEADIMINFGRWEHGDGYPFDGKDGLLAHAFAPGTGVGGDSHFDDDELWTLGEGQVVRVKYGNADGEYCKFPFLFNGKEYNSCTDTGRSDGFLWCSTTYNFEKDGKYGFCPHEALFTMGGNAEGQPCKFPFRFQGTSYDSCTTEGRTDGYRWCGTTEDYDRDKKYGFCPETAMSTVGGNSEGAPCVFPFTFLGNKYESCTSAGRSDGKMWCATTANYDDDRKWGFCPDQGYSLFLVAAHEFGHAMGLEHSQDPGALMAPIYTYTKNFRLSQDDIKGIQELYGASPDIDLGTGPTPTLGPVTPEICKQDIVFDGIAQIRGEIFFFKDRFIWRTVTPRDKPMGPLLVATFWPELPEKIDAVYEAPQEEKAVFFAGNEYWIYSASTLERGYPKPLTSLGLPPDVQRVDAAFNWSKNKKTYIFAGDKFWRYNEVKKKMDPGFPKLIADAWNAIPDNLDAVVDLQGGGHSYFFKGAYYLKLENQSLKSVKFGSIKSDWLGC

[2] = molecular target: 26S proteasome non-ATPase regulatory subunit 14 (Homo sapiens, UniProt O00487); assay: inhibition of proteasome subunit RPN11 – biochemical, fluorescence polarization, uHTS hits, confirmation (AID 602368); assay type: functional
Chain of 26S proteasome non-ATPase regulatory subunit 14 (O00487 whole entry): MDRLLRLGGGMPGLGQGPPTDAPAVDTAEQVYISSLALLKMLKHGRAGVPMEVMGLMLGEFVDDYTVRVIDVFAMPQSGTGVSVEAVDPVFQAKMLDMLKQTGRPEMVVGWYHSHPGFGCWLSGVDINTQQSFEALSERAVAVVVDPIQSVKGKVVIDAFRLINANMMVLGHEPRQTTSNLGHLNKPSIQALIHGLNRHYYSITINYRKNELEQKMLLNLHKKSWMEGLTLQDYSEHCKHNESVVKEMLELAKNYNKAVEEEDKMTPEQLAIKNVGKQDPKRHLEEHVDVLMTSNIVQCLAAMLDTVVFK

[3] = HIV-1 Vif–A3G interaction blockers – biochemical, TR-FRET, GST-Vif 1-94, biotin-A3G peptide, dose response retest, primary screen (AID 1117319); assay type: functional;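 further: TR-FRET signal of purified GST-Vif binding a biotinylated A3G peptide; inhibitors lower the FRET signal by blocking Vif and A3G binding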
[4] = molecular target: T1, Histone-lysine N-methyltransferase NSD2 (Homo sapiens, UniProt O96028); assay type: biochemical
T1 sequence (O96028 whole entry): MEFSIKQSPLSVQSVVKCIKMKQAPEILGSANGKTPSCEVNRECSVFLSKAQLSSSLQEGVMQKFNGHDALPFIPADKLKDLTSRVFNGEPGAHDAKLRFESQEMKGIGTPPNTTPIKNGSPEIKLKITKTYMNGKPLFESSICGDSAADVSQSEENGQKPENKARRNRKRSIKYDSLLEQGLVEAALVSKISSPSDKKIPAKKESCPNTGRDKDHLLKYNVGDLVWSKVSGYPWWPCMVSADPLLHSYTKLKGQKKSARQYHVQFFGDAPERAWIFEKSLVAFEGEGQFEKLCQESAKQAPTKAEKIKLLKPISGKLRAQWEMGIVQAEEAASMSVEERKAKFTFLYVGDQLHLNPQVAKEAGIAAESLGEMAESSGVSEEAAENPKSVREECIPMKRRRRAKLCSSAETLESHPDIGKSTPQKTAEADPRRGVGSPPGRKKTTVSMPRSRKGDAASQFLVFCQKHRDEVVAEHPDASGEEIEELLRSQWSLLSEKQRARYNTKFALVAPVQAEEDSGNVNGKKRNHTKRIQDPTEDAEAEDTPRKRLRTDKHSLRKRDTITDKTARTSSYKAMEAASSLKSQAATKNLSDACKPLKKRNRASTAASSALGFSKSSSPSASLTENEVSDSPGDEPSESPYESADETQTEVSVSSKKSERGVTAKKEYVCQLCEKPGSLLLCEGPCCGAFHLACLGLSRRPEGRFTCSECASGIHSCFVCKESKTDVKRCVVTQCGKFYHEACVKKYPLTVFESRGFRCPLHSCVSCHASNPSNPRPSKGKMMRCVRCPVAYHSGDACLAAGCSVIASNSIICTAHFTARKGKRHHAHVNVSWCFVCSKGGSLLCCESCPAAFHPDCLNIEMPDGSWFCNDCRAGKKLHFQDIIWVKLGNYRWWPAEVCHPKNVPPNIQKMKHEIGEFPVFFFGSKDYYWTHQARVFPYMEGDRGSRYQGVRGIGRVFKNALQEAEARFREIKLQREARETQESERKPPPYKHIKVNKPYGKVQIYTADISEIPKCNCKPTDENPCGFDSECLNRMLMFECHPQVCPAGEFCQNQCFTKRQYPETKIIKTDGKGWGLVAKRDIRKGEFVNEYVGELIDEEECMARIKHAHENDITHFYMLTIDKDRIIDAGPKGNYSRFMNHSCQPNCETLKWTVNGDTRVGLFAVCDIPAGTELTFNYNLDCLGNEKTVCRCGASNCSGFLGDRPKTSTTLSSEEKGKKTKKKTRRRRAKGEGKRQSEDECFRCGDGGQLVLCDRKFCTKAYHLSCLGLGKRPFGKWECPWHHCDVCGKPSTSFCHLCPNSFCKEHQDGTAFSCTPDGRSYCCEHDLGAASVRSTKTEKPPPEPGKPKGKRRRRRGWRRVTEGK

[5] = NIH3T3 cell viability loss – ATP luminescence, mouse fibroblasts, counter-screen, dose response (AID 2010); assay type: functional, cell-based;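 further: cells exposed to compound for about 90 hours before reading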
[6] = Trypanosoma cruzi growth suppression in host cells – NIH3T3 host cells, beta-gal luminescence, confirmation (AID 2044); assay type: functional, cell-based;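 further: intracellular parasites grown in NIH/3T3 mouse fibroblasts as host cells; luminescent beta-galactosidase reporter signal from transgenic T. cruzi replicating inside host cells; inhibitors lower the luminescence signal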
Cytochrome P450 2C9 = Cytochrome P450 2C9 (Homo sapiens, UniProt P11712)
Chain of Cytochrome P450 2C9 (P11712 whole entry, the tested form may be a part): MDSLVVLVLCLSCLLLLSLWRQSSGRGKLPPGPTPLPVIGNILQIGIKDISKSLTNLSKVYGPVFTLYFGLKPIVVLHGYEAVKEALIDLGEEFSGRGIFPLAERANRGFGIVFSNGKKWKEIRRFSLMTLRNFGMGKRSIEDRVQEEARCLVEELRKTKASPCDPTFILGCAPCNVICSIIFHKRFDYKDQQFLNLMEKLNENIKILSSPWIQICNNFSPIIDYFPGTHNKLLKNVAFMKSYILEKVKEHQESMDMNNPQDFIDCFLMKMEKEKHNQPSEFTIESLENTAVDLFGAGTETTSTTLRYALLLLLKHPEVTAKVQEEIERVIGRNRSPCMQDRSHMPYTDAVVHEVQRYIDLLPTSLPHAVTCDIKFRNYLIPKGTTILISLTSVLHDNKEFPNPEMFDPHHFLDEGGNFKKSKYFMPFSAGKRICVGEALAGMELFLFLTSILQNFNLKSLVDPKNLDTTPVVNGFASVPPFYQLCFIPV

[7] = blockers of HIV-1 envelope-mediated cell-cell fusion – cherry-pick, dose response (AID 652057); assay type: functional, cell-based
[8] = HIV-1 AD8 envelope cell-cell fusion blockers – cherry-pick, dose response (AID 652062); assay type: functional, cell-based;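 further: luciferase signal from cell-cell fusion driven by HIV-1 clade B AD8 Env; potency is for inhibitors of fusion seen as a drop in luminescence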
[9] = molecular target: T2, Polyadenylate-binding protein 1 (Homo sapiens, UniProt P11940); assay: MLLE binding blockers, Cy5 peptide tracer – biochemical, fluorescence polarization, Cy5-PAM2 peptide, secondary, miRNA deadenylation inhibitor project, dose response (AID 602260); assay type: functional; details: read-out: IC50_Mean
T2 sequence (P11940 whole entry, the tested form may be a part): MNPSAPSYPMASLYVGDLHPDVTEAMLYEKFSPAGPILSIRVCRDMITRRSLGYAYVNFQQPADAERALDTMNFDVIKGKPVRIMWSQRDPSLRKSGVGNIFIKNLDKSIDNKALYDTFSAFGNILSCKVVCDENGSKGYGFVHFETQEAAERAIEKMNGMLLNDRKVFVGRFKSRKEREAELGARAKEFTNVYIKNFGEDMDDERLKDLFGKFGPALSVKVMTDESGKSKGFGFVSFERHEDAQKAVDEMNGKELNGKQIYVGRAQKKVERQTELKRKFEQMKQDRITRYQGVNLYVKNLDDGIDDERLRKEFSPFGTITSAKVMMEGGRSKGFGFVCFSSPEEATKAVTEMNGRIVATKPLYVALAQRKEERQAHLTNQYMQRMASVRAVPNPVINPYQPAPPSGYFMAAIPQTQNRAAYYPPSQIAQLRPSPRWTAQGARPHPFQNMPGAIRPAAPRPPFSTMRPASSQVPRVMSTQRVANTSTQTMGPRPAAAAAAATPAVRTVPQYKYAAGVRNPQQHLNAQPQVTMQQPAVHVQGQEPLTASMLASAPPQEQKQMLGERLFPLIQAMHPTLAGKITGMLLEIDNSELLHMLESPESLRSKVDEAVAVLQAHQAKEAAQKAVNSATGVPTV

[10] = molecular target: T2, Polyadenylate-binding protein 1; assay: MLLE domain peptide-binding blockers, IC50 – biochemical, fluorescence polarization, FITC-PAM2 peptide, dose response (AID 602259); assay type: functional; details: read-out: IC50_Mean
[11] = molecular target: T3, Rac GTPase-activating protein 1 (Homo sapiens, UniProt Q9H0H5); assay: blockers of MgcRacGAP-driven Rac1 GTP hydrolysis – biochemical, ADP Hunter fluorescence, primary and confirmatory, confirmation (AID 624330); assay type: functional
T3 sequence (Q9H0H5 whole entry): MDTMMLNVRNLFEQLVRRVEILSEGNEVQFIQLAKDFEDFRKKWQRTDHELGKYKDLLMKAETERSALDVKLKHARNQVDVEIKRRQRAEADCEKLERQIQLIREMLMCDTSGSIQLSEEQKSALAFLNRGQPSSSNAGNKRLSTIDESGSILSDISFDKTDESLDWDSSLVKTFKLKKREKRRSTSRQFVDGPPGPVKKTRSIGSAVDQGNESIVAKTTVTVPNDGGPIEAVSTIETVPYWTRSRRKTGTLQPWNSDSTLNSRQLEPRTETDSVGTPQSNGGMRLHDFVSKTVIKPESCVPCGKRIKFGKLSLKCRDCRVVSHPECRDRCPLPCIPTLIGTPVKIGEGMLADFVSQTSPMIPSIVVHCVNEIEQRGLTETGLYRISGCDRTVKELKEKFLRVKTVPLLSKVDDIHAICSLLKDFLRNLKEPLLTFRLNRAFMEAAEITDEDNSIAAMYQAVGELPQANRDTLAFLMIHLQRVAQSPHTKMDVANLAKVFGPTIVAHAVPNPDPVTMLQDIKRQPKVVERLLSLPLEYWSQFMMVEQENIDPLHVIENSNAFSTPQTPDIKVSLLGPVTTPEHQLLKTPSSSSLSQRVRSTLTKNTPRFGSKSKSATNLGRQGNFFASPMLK

Beta-galactosidase = Beta-galactosidase (Escherichia coli, UniProt Q8VNN2); assay: PubChem AID 485352; assay type: functional
Chain of Beta-galactosidase (Q8VNN2 whole entry): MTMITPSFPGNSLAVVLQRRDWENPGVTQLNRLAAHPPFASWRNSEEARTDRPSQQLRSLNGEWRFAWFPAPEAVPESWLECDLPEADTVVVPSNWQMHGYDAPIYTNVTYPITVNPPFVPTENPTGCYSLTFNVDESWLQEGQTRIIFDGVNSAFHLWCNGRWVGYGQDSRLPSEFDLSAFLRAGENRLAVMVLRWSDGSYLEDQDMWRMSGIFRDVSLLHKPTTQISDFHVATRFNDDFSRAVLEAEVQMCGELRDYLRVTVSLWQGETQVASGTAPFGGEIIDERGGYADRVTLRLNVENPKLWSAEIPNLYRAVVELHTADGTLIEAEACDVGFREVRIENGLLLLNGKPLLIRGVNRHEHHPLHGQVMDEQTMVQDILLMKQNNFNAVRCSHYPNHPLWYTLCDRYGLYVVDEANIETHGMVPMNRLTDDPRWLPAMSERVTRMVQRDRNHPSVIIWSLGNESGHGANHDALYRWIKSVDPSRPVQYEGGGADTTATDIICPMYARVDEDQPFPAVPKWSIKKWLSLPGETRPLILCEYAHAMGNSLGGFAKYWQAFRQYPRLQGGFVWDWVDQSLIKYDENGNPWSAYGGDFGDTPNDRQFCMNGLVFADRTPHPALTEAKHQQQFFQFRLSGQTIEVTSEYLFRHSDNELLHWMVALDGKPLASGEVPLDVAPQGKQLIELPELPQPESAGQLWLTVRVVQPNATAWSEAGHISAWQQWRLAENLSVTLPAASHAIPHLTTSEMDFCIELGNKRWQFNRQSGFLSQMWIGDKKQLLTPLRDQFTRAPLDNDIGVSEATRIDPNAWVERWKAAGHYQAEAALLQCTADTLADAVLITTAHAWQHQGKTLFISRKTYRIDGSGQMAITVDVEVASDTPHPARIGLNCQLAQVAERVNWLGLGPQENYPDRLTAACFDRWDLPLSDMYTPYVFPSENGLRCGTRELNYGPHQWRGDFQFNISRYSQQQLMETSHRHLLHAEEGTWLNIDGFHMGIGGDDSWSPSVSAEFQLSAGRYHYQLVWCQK

[12] = molecular target: T4, Type-1 angiotensin II receptor (Homo sapiens, UniProt P30556); assay: antagonism of angiotensin II type 1 receptor – cell-based, uHTS hits, selectivity assay for APJ receptor antagonist project, dose response (AID 463214); assay type: functional;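 further: antagonist potency against angiotensin II stimulated AT1 response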
T4 sequence (P30556 whole entry): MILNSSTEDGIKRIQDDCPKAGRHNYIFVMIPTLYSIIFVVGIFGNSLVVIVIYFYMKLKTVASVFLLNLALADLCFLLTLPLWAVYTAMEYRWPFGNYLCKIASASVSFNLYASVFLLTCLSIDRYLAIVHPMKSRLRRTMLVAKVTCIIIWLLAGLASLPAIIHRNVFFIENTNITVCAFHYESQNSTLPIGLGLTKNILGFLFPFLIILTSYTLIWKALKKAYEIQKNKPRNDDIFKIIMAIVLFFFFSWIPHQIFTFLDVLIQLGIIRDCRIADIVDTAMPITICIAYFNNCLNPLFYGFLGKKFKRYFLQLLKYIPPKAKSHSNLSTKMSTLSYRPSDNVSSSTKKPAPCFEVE

[13] = growth inhibition of PfATP4-mutant resistant parasites – NITD609-resistant line, SYBR Green, dry powder, dose response (AID 1159571); assay type: functional, cell-based;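 further: parasites synchronized at ring stage by sorbitol before testing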
[14] = P. falciparum Dd2 growth inhibitors, dose response, SYBR Green, cherry-picked samples (AID 1159567); assay type: functional, cell-based
[15] = growth inhibition of yeast DHODH-expressing 3D7 parasites – SYBR Green, dry powder samples, dose response (AID 1159570); assay type: functional, cell-based;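 further: parasite growth measured after 72 hours of compound exposure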
[16] = Dd2 malaria parasite growth inhibition potency – SYBR Green, dry powder samples, dose response (AID 1159566); assay type: functional, cell-based;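 further: potency for growth inhibition with lower SYBR green DNA signal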

For COCCNC(=O)c1c(NC(=O)c2nc(SC)ncc2Cl)sc2c1CCCC2, the IC50 (Prothrombin) was 50 µM (active), the IC50 [1] was > 100 µM (inactive) and the IC50 [2] was 17.6 µM (active).

With O=S(=O)(Nc1ccc2c(c1)nc1n2CCN(Cc2ccccc2)C1)c1ccc(Cl)cc1 the IC50 [3] was > 100 µM (active).

For COc1cccc(CN2CCNC(=O)C2CC(=O)NCCn2nc(C)cc2C)c1OC (stereo not given), the IC50 [3] was > 100 µM (active).

In the case of O=C(CSc1nc2ccccc2o1)Nc1nc2c(s1)CCCC2, the IC50 (Prothrombin) is reported as 24 µM (active), the IC50 [1] is reported as > 100 µM (inactive) and the IC50 [2] is reported as 30.6 µM (active).

In the case of CNCCCOc1cccc(Oc2ccccc2)c1, the AC50 [4] is reported as > 20 µM (inactive), the EC50 [5] is reported as > 30 µM (not active) and the EC50 [6] is reported as 1.29 µM (active).

With Cc1ccc[n+](CC(=O)c2cc3ccccc3oc2=O)c1 the AC50 (Cytochrome P450 2C9) was 1.78 µM (inconclusive) and the IC50 [3] was > 100 µM (active).

In the case of CC(c1nc(O)c2ccccc2n1)N(C)CCOc1ccc(Cl)cc1 (stereo not given), the AC50 [7] is reported as 57.3 µM (active) and the AC50 [8] is reported as 28.3 µM (active).

For CCN(CC)CCOC(=O)c1ccc(NC=C2C(=O)NC(=O)NC2=O)cc1, the IC50 (Prothrombin) was 32.4 µM (active), the IC50 [1] was > 100 µM (inactive) and the IC50 [2] was 22.4 µM (active).

For CSc1nc2oc3c(c2c2nncn12)CC(C)(C)SC3, the IC50 [9] was > 66 µM (inactive) and the IC50 [10] was > 66 µM (inactive).

With N=C1/C(=C\c2ccc(O)c(O)c2)C(=O)N=C2SC(CC(=O)N3CCOCC3)=NN12 the AC50 [4] was 1.79 µM (active) and the IC50 [11] was 63.6 µM (active).

For C/C(=N\NC(=S)Nc1cccc(C)c1)c1ccccc1, the IC50 [9] was > 66 µM (inactive), the EC50 (Beta-galactosidase) was > 40 µM (inactive) and the IC50 [12] was > 40 µM (not active). For the same compound, the IC50 [10] was > 66 µM (inactive).

In the case of Cn1cc(/C=N\O)nc2c(=O)n(-c3ccccc3)c(=O)nc1-2, the IC50 [9] is reported as > 66 µM (inactive) and the IC50 [10] is reported as > 66 µM (inactive).

For CC1SC(N/N=C/c2ccco2)=NC1=O (stereo not given), the IC50 [3] was > 100 µM (active).

For Cc1ccc(S(=O)(=O)N(C)C[C@@H]2OCc3ccccc3-c3c(n(C)c4ccccc34)C(=O)N([C@@H](C)CO)C[C@@H]2C)cc1, the AC50 [13] was 0.291 µM (active), the AC50 [14] was 0.611 µM (active) and the AC50 [15] was 0.427 µM (active). The AC50 [16] was 0.346 µM (active).

For COc1cc(C(=S)N2CCOCC2)ccc1O [VANITIOLIDE], the IC50 [9] was > 66 µM (inactive) and the IC50 [10] was > 66 µM (inactive).
